Reference: patent publication US12428413B2 (CHDI Foundation, Inc., priority 2019, dated 2025)
Structures can show the parent of a compound that is named as a salt. Where two headings read alike, the source gives them in different places.

Columns and labels:
[1] = system: cellular ROCK activity (cofilin phosphorylation at Ser3) in A7r5 rat smooth muscle cells; assay: Cellular ROCK activity: cofilin (Ser3) phosphorylation, In-Cell Western assay; assay type: cell-based; settings: 1 hour compound incubation, phospho-cofilin (Ser3), read-out: CELL_IC50
Procedure: The potency of Rho-associated protein kinase (ROCK) inhibitors was quantified by measuring cofilin phosphorylation levels at Serine 3 (Ser3) as a measure of cellular ROCK activity by In-Cell Western assay. […] The assay plate was imaged and quantified on the Odyssey imager (LICOR Biosciences).
ROCK inhibitor compound plate preparation. […] Stock compounds and control are added directly to ECHO plate (Labcyte) by Janus.
A7r5 cell culture and plating. A7r5 cells were cultured according to standard cell culture protocols in A7r5 growth media (DMEM with Glutamax and 10% FBS). […] 45 μl of re-suspended A7r5 cells were plated at 3000 cells/well in a sterile, μclear, black, F-bottom, 384-well microplate (Greiner bio-one). Seeded cells allowed to settle in wells on the bench for 1 hour before incubation at 37° C., 5% CO2 overnight.
Assay reagent and antibody preparations. Wash buffer was prepared by addition of Tween-20 to Dulbecco's Phosphate Buffered Saline (DPBS) (1×) without calcium and magnesium to make 1% Tween-20 as final concentration. Blocking buffer was prepared by addition of TritonX-100 to SeaBlock buffer (ThermoFisher) to make 0.3% TritonX-100 as final concentration. […] Secondary antibody mix was prepared by diluting donkey anti-rabbit 800CW antibody (LICOR Biosciences) 1:1000 in SeaBlock buffer.
Assay procedure. Compound plate was diluted by addition of 19 μl/well compound dilution buffer (DMEM with Glutamax) using 125 μl 16-channel Matrix electronic pipette. 5 μl diluted compound was stamped from compound plate to assay plate containing A7r5 cells using Bravo (384-well head from Agilent) liquid handler and incubated at 37° C., 5% CO2 for 1 hour. Cells were fixed by addition of 5 μl 37% formaldehyde using 125 μl 16-channel Matrix electronic pipette and incubation for 20 min at room temperature. The assay plate was washed 5× with 60 μl/well wash buffer. […] Next, the assay plate was sealed, centrifuged at 1000 rpm for 5 seconds and incubated at 4° C. overnight on an orbital shaker at 300 rpm. […] The assay plate was centrifuged at 1000 rpm for 5 seconds and incubated on an orbital shaker at 300 rpm for 60 min at room temperature. Finally, assay plate was washed and wells left empty before measurement of 700 nm and 800 nm fluorescence intensities on Odyssey imager set at 4.0 mm focus offset.

[2] = molecular target: human catalytic domain ROCK II protein (amino acids 5-554) with a N-terminal GST tag (Homo sapiens, UniProt O75116); assay: biochemical
human catalytic domain ROCK II protein (amino acids 5-554) with a N-terminal GST tag, sequence (O75116 5-554): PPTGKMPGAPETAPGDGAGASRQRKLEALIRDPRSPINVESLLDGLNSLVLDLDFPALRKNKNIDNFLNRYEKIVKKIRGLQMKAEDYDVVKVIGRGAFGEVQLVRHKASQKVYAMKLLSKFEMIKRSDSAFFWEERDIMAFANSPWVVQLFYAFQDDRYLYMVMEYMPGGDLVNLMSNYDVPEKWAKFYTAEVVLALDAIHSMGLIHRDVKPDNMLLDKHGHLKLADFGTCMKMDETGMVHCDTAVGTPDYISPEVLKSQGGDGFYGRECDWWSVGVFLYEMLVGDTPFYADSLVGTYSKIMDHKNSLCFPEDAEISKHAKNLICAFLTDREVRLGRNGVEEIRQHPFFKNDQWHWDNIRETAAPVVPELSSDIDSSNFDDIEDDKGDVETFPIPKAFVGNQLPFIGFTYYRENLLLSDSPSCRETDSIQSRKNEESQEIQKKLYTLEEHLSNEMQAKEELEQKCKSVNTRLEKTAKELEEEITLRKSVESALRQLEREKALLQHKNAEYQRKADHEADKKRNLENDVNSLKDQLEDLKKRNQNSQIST

| SMILES | IC50 ([1]; Rattus norvegicus, A7R5, 1 h) [nM] | IC50 [2] [nM] | IC50 [1] [nM] |
| --- | --- | --- | --- |
| COc1cccc([C@@H](C)NC(=O)N2[C@H](C)CN(c3ccncc3F)C[C@H]2C)c1 [Example 97, (2R,6R)-4-(3-Fluoropyridin-4-yl)-N—((R)-1-(3-methoxyphenyl)ethyl)-2,6-dimethylpiperazine-1-carboxamide Formate] | 114 | 12 |  |
| C[C@@H]1CN(c2ccncc2F)C[C@@H](C)N1C(=O)N[C@H](C)c1cccc2c1CCO2 [Example 96, (2R,6R)—N—((R)-1-(2,3-Dihydrobenzofuran-4-yl)ethyl)-4-(3-fluoropyridin-4-yl)-2,6-dimethylpiperazine-1-carboxamide] | 34.7 | 6.5 |  |
| C[C@@H]1CN(c2ccnc(F)c2)CCN1C(=O)N[C@H](C)c1cccc2occc12 [Example 113] | 122 | 3.9 |  |
| COc1cccc([C@@H](C)NC(=O)N2CCN(c3ccncc3F)CC2)c1F [Example 18, (R)—N-(1-(2-Fluoro-3-methoxyphenyl)ethyl)-4-(3-fluoropyridin-4-yl)piperazine-1-carboxamide] | 2550 | 198 |  |
| C[C@@H](NC(=O)N1CCN(c2ccnc(F)c2)[C@@H](C)C1)c1cccc2c1CCO2 [Example 118] | 711 | 16.2 |  |
| COc1cccc([C@@H](C)NC(=O)N2CCN(c3ccncc3F)C[C@H]2C)c1 [Example 43, (R)-4-(3-Fluoropyridin-4-yl)-N—((R)-1-(3-methoxyphenyl)ethyl)-2-methylpiperazine-1-carboxamide] | 7.5 | 2.9 |  |
| C[C@@H]1CN(c2ccnc(F)c2)CCN1C(=O)NCc1cccc2c1OCO2 [Example 6, (R)—N-(Benzo[d][1,3]dioxol-4-ylmethyl)-4-(2-fluoropyridin-4-yl)-2-methylpiperazine-1-carboxamide] |  | 117 |  |
| C[C@@H](NC(=O)N1CCN(c2ccncc2F)CC1)c1cccc2occc12 [Example 29, (R)—N-(1-(Benzofuran-4-yl)ethyl)-4-(3-fluoropyridin-4-yl)piperazine-1-carboxamide] | 54.1 | 4.5 |  |
| COc1cccc([C@@H](C)NC(=O)N2CCN(c3ccncc3F)[C@@H](C)C2)c1 [Example 90, (S)-4-(3-Fluoropyridin-4-yl)-N—((R)-1-(3-methoxyphenyl)ethyl)-3-methylpiperazine-1-carboxamide] | 62 | 4.8 |  |
| COc1cccc([C@@H](C)NC(=O)N2CCN(c3ccncc3F)[C@H](C)C2)c1 [Example 91, (R)-4-(3-Fluoropyridin-4-yl)-N—((R)-1-(3-methoxyphenyl)ethyl)-3-methylpiperazine-1-carboxamide] | 783 | 150 |  |
| [2H]C([2H])([2H])Oc1cccc([C@@H](C)NC(=O)N2CCN(c3ccncc3F)CC2)c1 [Example 132] | 185 | 6.7 |  |
| COc1cccc([C@@H](C)NC(=O)N2CCN(c3ccncc3F)[C@H]3C[C@H]32)c1 [Example 152] | 248 | 16.3 |  |
| COc1cccc([C@H](C)NC(=O)N2CCN(c3ccncc3F)CC2)c1Cl [Example 125] | 4310 | 1160 |  |
| C[C@@H](NC(=O)N1CCN(c2ccncc2F)[C@@H](C)C1)c1ccccc1Cl [Example 146] | 2090 | 110 |  |
| C[C@@H]1CN(c2ccnc(F)c2)CCN1C(=O)NCc1cccc2c1OC(F)(F)O2 [Example 5, (R)—N-((2,2-Difluorobenzo[d][1,3]dioxol-4-yl)methyl)-4-(2-fluoropyridin-4-yl)-2-methylpiperazine-1-carboxamide] |  | 864 |  |
| COc1cccc([C@@H](C)NC(=O)N2C[C@H]3C[C@@H]2CN3c2ccncc2F)c1 [Example 153] | 2430 | 238 |  |
| CC(NC(=O)N1CCN(c2ccncc2F)CC1)c1cccc(F)c1Cl (single isomer, unassigned) [Example 23, N-(1-(2-Chloro-3-fluorophenyl)ethyl)-4-(3-fluoropyridin-4-yl)piperazine-1-carboxamide] |  | 88.8 | 1440 |

| SMILES | IC50 ([1]; Rattus norvegicus, A7R5, 1 h) [nM] | IC50 [2] [nM] | IC50 [1] [nM] |
| --- | --- | --- | --- |
| COc1cccc([C@@H](C)NC(=O)N2CCN(c3ccnc(F)c3)C[C@H]2C)c1 [Example 1, (R)-4-(2-Fluoropyridin-4-yl)-N—((R)-1-(3-methoxyphenyl)ethyl)-2-methylpiperazine-1-carboxamide] | 122 | 6.5 |  |
| COc1cccc(CNC(=O)N2CCN(c3ccnc(F)c3)[C@@H](C)C2)c1 [Example 121] |  | 102 |  |
| C[C@@H]1CN(C(=O)N[C@H](C)c2ccc(F)cc2Cl)CCN1c1ccnc(F)c1 [Example 14, (R)—N—((R)-1-(2-Chloro-4-fluorophenyl)ethyl)-4-(2-fluoropyridin-4-yl)-3-methylpiperazine-1-carboxamide] |  | 3410 |  |
| C[C@H]1CN(C(=O)NCc2cccc(OC(F)F)c2)CCN1c1ccnc(F)c1 [Example 122] |  | 802 |  |
| C[C@@H]1CN(C(=O)N[C@H](C)c2ccccc2Cl)CCN1c1ccnc(F)c1 [Example 13, (R)—N—((R)-1-(2-Chlorophenyl)ethyl)-4-(2-fluoropyridin-4-yl)-3-methylpiperazine-1-carboxamide] | ≥ 5000 | 4790 |  |
| COc1cccc([C@@H](C)NC(=O)N2CCN(c3ccncc3F)CC2)c1Cl [Example 20] | ≥ 5000 | 581 |  |
| C[C@@H]1CN(c2ccncc2F)CCN1C(=O)N[C@H](C)c1cccc(OC(F)F)c1 [Example 136] | 53.1 | 3.8 |  |
| COc1cccc(CN2CC[C@@H]3CN(c4ccncc4F)CCN3C2=O)c1 [Example 89, (R)-2-(3-Fluoropyridin-4-yl)-7-(3-methoxybenzyl)octahydro-6H-pyrazino[1,2-c]pyrimidin-6-one] | 1150 | 55.1 |  |
| COc1cc(F)cc(CN2C[C@H]3CN(c4ccncc4F)CCN3C2=O)c1 [Example 85, (R)-2-(3-Fluoro-5-methoxybenzyl)-7-(3-fluoropyridin-4-yl)hexahydroimidazo[1,5-a]pyrazin-3(2H)-one] |  | 4680 |  |
| C[C@H](NC(=O)N1CCN(c2ccncc2F)C[C@H]1C)c1cccc2nn(C)cc12 [Example 72, (R)-4-(3-Fluoropyridin-4-yl)-2-methyl-N—((S)-1-(2-methyl-2H-indazol-4-yl)ethyl)piperazine-1-carboxamide] |  | 86.6 |  |
| O=C(NCc1cccc(OC(F)F)c1)N1CCN(c2ccnc(F)c2)CC1 [Example 103] |  | 1060 |  |
| Cc1cnc2cccc([C@H](C)NC(=O)N3CCN(c4ccncc4F)CC3)n12 [Example 35, (S)-4-(3-fluoropyridin-4-yl)-N-(1-(3-methylimidazo[1,2-a]pyridin-5-yl)ethyl)piperazine-1-carboxamide] |  | 142 |  |
| C[C@@H]1CN(c2ccncc2F)CCN1C(=O)N[C@H](C)c1cccc2c1N(C)CCO2 [Example 143] |  | 3070 |  |
| C[C@@H]1CN(c2ccncc2F)C[C@@H](C)N1C(=O)NCc1ccccc1Cl [Example 92, (2R,6R)—N-(2-Chlorobenzyl)-4-(3-fluoropyridin-4-yl)-2,6-dimethylpiperazine-1-carboxamide] |  | 563 |  |
| C[C@@H](NC(=O)N1CCN(c2ccncc2F)CC1)c1ccccc1Br [Example 19, (R)—N-(1-(2-Bromophenyl)ethyl)-4-(3-fluoropyridin-4-yl)piperazine-1-carboxamide] | 1470 |  |  |
| COc1cccc([C@H](C)NC(=O)N2CCN(c3ccncc3F)C[C@H]2C)c1Cl [Example 140] | 2620 |  |  |
